According to patent US5075308A, “Method for treating urinary obstruction” (Hitachi Chemical Co., Ltd., priority 1989, dated 1991):

What was measured:
[1] = test system: α1-adrenoceptor (thoracic aorta); experiment: α1-adrenoceptor-blocking activity in rabbit thoracic aorta strips (noradrenaline contraction, Schild plot); conditions: rabbit thoracic aorta helical strips, endothelium denuded; antagonism of noradrenaline contraction; mean (± standard deviation)
Experimental: (§1) Male albino rabbits weighing 2.2-2.5 kg were intravenously given pentobarbital (Nembutal® manufactured by Abbott) at a dose of 35 mg/kg body weight and sacrificed by exsanguination. The thoracic aorta and urinary bladder were rapidly excised and placed in modified Krebs solution. After removal of fat and unnecessary connective tissue, helical strips (3×15 mm in size) of the thoracic aorta and longitudinal strips (3×15 mm in size) of trigonum vesicae were prepared and used as specimen. The helical strips were carefully denuded of endothelium attached thereto in order to avoid any effect of the endothelium-derived vascular relaxing factors.
(§2) The preparations were vertically mounted in an organ bath filled with 20 ml of the modified Krebs solution (aerated with a gas mixture of 95 vol % of oxgen and 5 vol % of carbon dioxide and kept at 37° C.). The other end of each strip was attached to a transducer for tension measurement (the model TB-6llT manufactured by Nihon Kohden Kogyo K.K.). Changes in tension were recorded on a pen-writing oscillograph (the model Wi-68lG manufactured by Nihon Kohden Kogyo K.K.). Composition of the modified Krebs solution used herein was as follows: NaCl 115.0, KCl 4.7, MgSO4.7H2 O 1.2, CaCl2.2H2 O 2.5, KH2 PO4 1.2, NaHCO3 25.0 and glucose 10.0 (concentration in mM). The solution contained 10^-6 M propranolol, a […] (manufactured by Sigma). The loading tension was adjusted to attain a weight of 2 g for aorta and a weight of 1 g for trigone. The strips were allowed to equilibrate for at least 60 min. before initiation of the experiment, and during this period the modified Krebs solution in the organ bath was replaced every 20 min.
(§3) First, noradrenaline (manufactured by Sigma, 10^-6 -10^-4 M) was cumulatively added to each specimen to prepare a concentration-response curve to noradrenaline (to determine the 50% effective concentration ED50). […] The results were analyzed by Schild plotting to determine pA2 ([…] of concentration of the blocking agent necessary for parallel shift of the 50% contraction caused by noradrenaline to a concentration two fold as high).

[2] = test system: α1-adrenoceptor (trigonum vesicae); experiment: α1-adrenoceptor-blocking activity in rabbit trigonum vesicae strips (noradrenaline contraction, Schild plot); conditions: for Activity ratio: ratio of pA2 (calculated as concentration) with trigonum vesicae to pA2 with thoracic aorta
Experimental: as §1, §2, §3

[3] = target: T1, α1-adrenoceptor (trigonum vesicae) (Oryctolagus cuniculus, UniProt O02824); experiment: as above; conditions: rabbit trigonum vesicae longitudinal strips; antagonism of noradrenaline contraction; mean (± standard deviation); read-out: pA2, trigonum vesicae (converted)
T1 construct: longitudinal strips (3×15 mm in size) of trigonum vesicae; from tissue; host or cells: rabbit urinary bladder, longitudinal strips of trigonum vesicae
T1 sequence (O02824 1-466): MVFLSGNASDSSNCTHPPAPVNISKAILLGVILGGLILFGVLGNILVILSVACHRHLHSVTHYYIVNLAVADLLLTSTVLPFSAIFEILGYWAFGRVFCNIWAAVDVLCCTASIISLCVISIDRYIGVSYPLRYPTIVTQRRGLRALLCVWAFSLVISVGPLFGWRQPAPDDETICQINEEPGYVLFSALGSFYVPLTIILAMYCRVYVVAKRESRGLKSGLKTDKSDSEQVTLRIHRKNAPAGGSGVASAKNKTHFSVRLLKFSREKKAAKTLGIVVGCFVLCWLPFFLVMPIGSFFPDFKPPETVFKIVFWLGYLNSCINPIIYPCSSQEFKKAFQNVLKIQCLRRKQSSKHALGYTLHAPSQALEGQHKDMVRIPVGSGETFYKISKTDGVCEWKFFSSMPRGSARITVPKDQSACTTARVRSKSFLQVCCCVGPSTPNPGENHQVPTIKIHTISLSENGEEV
Experimental: as §1, §2, §3

## COc1ccccc1N1CCN(CCNc2nc(C)c(C(C)=O)c(C)n2)CC1 [Compound 1, 2-[2-(4-(2-methoxyphenyl)-l-piperazinyl)ethyl]amino-5-acetyl-4,6-dimethylpyrimidine]
[1]
  pA2, thoracic aorta: 7.35
[2]
  Activity ratio: 5.25
[3]
  Kb: 8.51 nM

## CCOC(=O)c1c(C)nc(NCCCCN2CCN(c3ccccc3OC)CC2)nc1C [Compound 2, 2-[4-(4-(2-methoxyphenyl)-l-piperazinyl)butyl]amino-5-ethoxycarbonyl-4,6-dimethylpyrimidine]
[1]
  pA2, thoracic aorta: 7.47
[2]
  Activity ratio: 6.76
[3]
  Kb: 5.01 nM

## COc1ccccc1N1CCN(CCNc2nc(C)cc(C)n2)CC1 [Compound 3, 2-[2-(4-(2-methoxyphenyl)-l-piperazinyl)ethyl]amino-4,6-dimethylpyrimidine]
[1]
  pA2, thoracic aorta: 7.67
[2]
  Activity ratio: 3.02
[3]
  Kb: 7.08 nM

## CCOC(=O)c1c(C)nc(NCCCN2CCN(c3ccccc3OC)CC2)nc1C [Compound 4, 2-[3-(4-(2-methoxyphenyl)-l-piperazinyl)propyl]amino-5-ethoxycarbonyl-4,6-dimethylpyrimidine]
[1]
  pA2, thoracic aorta: 7.65
[2]
  Activity ratio: 4.27
[3]
  Kb: 5.25 nM

## COc1ccccc1N1CCN(CCNc2nccc(Cl)n2)CC1 [Compound 5, 2-[2-(4-(2-methoxyphenyl)-l-piperazinyl)ethyl]amino-4-chloropyrimidine]
[1]
  pA2, thoracic aorta: 7.83
[2]
  Activity ratio: 2.82
[3]
  Kb: 5.25 nM

## COc1ccccc1N1CCN(CCNc2ncccn2)CC1 [Compound 6, 2-[2-(4-(2-methoxyphenyl)-l-piperazinyl)ethyl]amino-pyrimidine]
[1]
  pA2, thoracic aorta: 7.74
[2]
  Activity ratio: 2.29
[3]
  Kb: 7.94 nM

## CCOC(=O)c1c(C)nc(NCCN2CCN(c3ccccc3OC)CC2)nc1C [Compound 7, 2-[2-(4-(2-methoxyphenyl)-l-piperazinyl)ethyl]amino-5-ethoxycarbonyl-4,6-dimethylpyrimidine]
[1]
  pA2, thoracic aorta: 7.92
[2]
  Activity ratio: 2.19
[3]
  Kb: 5.5 nM

## COc1ccnc(NCCN2CCN(c3ccccc3OC)CC2)n1 [Compound 8, 2-[2-(4-(2-methoxyphenyl)-l-piperazinyl)ethyl]amino-4-methoxypyrimidine]
[1]
  pA2, thoracic aorta: 7.92
[2]
  Activity ratio: 1.86
[3]
  Kb: 6.46 nM

## COc1ccnc(NCCCCN2CCN(c3ccccc3OC)CC2)n1 [Compound 9, 2-[4-(4-(2-methoxyphenyl)-l-piperazinyl)butyl]amino-4-methoxypyrimidine]
[1]
  pA2, thoracic aorta: 7.96
[2]
  Activity ratio: 1.78
[3]
  Kb: 6.17 nM

## COc1cc2nc(N3CCN(C(=O)c4ccco4)CC3)nc(N)c2cc1OC [Prazosin, reference compound]
[1]
  pA2, thoracic aorta: 8.55
[2]
  pA2 comparison trigonum vesicae vs thoracic aorta (in words): larger pA2 in the thoracic aorta than in the trigonum vesicae
